Experimental data: patent publication US20070231320A1, “Eggs having increased antibody titer and methods for making same” (priority 2006, published 2007)

Tests used:
Assay type in all cases: in vivo, Hyline-98 leghorn hens
[1] = tested on: anti-PLA2 antibody titer in egg yolk; test: Egg yolk anti-PLA2 antibody titer by ELISA, third trial: indomethacin or aspirin in feed from day 14 after antigen; details: FIG. 3, inhibitor in feed from day 14 after PLA2 injection; for presence of anti-PLA2 antibodies in eggs: 21 days after exposure
Experimental: (§1) Eggs were cracked and the yolks and albumin were separated. The antibodies were extracted by a 1:10 dilution of yolk in acidified PBS (pH 5.0) for twelve hours. Antibody titer was assayed by enzyme-linked immunosorbent assay (ELISA) at twenty-eight, thirty-five and forty-two days after exposure to the antigen. Optical density was measured at 450 nm using an HRP enzyme reaction to detect antibody. A standard on each plate was defined as a “positive reaction,” which is defined as twice the optical density of an egg yolk diluted 1:2000 from a hen not immunized against the antigen.
In a third set of experiments, the hens were divided at 245 days of age into three treatment groups. On day one, the three groups were injected at the four sites with 1 ml total of 3 mg PLA2/ml of CFA and PBS in a 50/50 mixture. A control group (n=8) was fed standard breeder's mash for the entire trial. Starting on day fourteen after exposure to the antigen, a first test group (n=8) was fed standard breeder's mash supplemented with 50 mg of indomethacin/kg diet and a second test group (n=8) was fed standard breeder's mash supplemented with 1 g aspirin/kg diet.
Antibody titer was determined as in the first two trials at twenty-one, twenty-eight and sixty-three days after the injection of PLA2.

[2] = tested on: anti-PLA2 antibody titer in egg yolk; test: Egg yolk anti-PLA2 antibody titer by ELISA, second trial: indomethacin or aspirin in feed for 24 h before antigen; details: for anti-PLA2 antibody titer in eggs vs control hens / presence of anti-PLA2 antibodies in eggs: FIG. 2, 50 mg indomethacin/kg diet or 1 g aspirin/kg diet for 24 h before PLA2 injection; for anti-PLA2 antibody titer in eggs vs control hens: 35 and 42 days after exposure; for presence of anti-PLA2 antibodies in eggs: 21 days after exposure
Experimental: as §1
In a second set of trials, the hens were divided at 300 days of age into three treatment groups. For twenty-four hours after the groups were established, a control group (n=6) was fed standard breeder's mash, a first test group (n=6) was fed standard breeder's mash supplemented with 50 mg of indomethacin/kg diet, and a second test group (n=6) was fed standard breeder's mash supplemented with 1 g aspirin/kg diet. After twenty-four hours, the three groups were injected at the four sites with 1 ml total of 3 mg PLA2/ml of CFA and PBS in a 50/50 mixture. Booster injections were given as described above.
Antibody titer was determined as in the first trial at twenty-one, twenty-eight, thirty-five and forty-two days after exposure to the antigen.

[3] = tested on: anti-PLA2 antibody titer in egg yolk; test: Egg yolk anti-PLA2 antibody titer by ELISA, first trial: COX inhibitor in feed for 24 h before antigen; details: 50 mg indomethacin/kg diet for 24 h before PLA2 injection
Experimental: Hyline-98 leghorn hens were randomly assigned to treatment groups and given free access to standard breeder's mash and water. In a first set of trials, the hens were divided at 245 days of age into two treatment groups. For twenty four hours after the groups were established, a control group (n=6) was fed standard breeder's mash and a test group (n=6) was fed standard breeder's mash supplemented with 50 mg of indomethacin/ kg diet. After twenty four hours, both groups were injected intramuscularly (i.m.) at four sites (each breast muscle and each leg muscle) with 1 ml total of 3 mg PLA2/ml of complete Freund's adjuvant (CFA; Sigma, St. Louis, Mo.) and phosphate buffered saline (PBS) in a 50/50 mixture. Hens were given an i.m. booster injection over the four sites seven days after initial injection with 1 ml total of a 3 mg PLA2/ml of incomplete Freund's adjuvant (IFA; Sigma) and PBS in a 50/50 mixture.
as §1

| Structure (SMILES) | anti-PLA2 antibody titer in eggs compared to control ([1]; 21 and 28 days after exposure) | presence of anti-PLA2 antibodies in eggs [1] | anti-PLA2 antibody titer in eggs compared to control ([1]; 63 days after exposure) | anti-PLA2 antibody titer of eggs relative to eggs from control hens ([2]; 1 g aspirin/kg diet for 24 h before PLA2 injection, 42 days after exposure) | effectiveness at increasing antibody titer, aspirin compared with indomethacin ([2]; 1 g aspirin/kg diet vs 50 mg indomethacin/kg diet for 24 h before PLA2 injection) | anti-PLA2 antibody titer in eggs vs control hens [2] | presence of anti-PLA2 antibodies in eggs [2] | anti-PLA2 antibody titer of eggs relative to eggs from control hens ([3]; 42 days after exposure) | anti-PLA2 antibody titer in eggs vs control hens ([3]; FIG. 1, 28, 35 and 42 days after exposure) | presence of antigen-specific anti-PLA2 antibodies in eggs ([3]; FIG. 1, by 28 days after exposure) |
| --- | --- | --- | --- | --- | --- | --- | --- | --- | --- | --- |
| CC(=O)Oc1ccccc1C(=O)O [aspirin] | not significantly different | contained anti-PLA2 antibodies | control group had a higher antibody titer | nearly three times | more effective | significantly increased | had anti-PLA2 antibodies | – | – | – |
| COc1ccc2c(c1)c(CC(=O)O)c(C)n2C(=O)c1ccc(Cl)cc1 [indomethacin] | not significantly different | contained anti-PLA2 antibodies | control group had a higher antibody titer | – | – | significantly increased | had anti-PLA2 antibodies | nearly triple | significantly increased | contained antigen-specific anti-PLA2 antibodies |
